Assay results from PubChem BioAssay AID2060335 (Molecular Pharmacology Branch, DTP, NCI, 2025).
Where “and” joins values, the source holds several entries; their conditions need not be identical. Equal entries are not always repeated.

Test system: DU-145 multicell spheroids with HUVEC/MSC, viability
Assay: Anticancer human tumor DU-145 cell line growth inhibition [IpAb];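 also: spheroids exposed to agents for seven days before measurement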;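 as to viability, T/C: percent of DMSO vehicle control viability so 100% = untreated level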
Conditions: for viability, T/C: stronger effect = lower value
How it was run: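 Multi-cell spheroids of 60% tumour cells, 25% HUVEC and 15% MSC in ultra-low-attachment U-bottom wells, treated with agents combined with ipatasertib or abemaciclib. Half-log ranges top out near clinical Cmax, or 10 microM when Cmax is unknown.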

[1] = curve of first compound, second compound 0.01 µM
[2] = curve of first compound, second compound 0.0316 µM
[3] = curve of first compound, second compound 0.1 µM
[4] = curve of first compound, second compound 0.316 µM
[5] = curve of first compound, second compound 1 µM
[6] = second compound 0.01 µM, first compound 0.00316 µM
[7] = second compound 0.01 µM, first compound 0.01 µM
[8] = second compound 0.01 µM, first compound 0.0316 µM
[9] = second compound 0.01 µM, first compound 0.1 µM
[10] = second compound 0.0316 µM, first compound 0.00316 µM
[11] = second compound 0.0316 µM, first compound 0.01 µM
[12] = second compound 0.0316 µM, first compound 0.0316 µM
[13] = second compound 0.0316 µM, first compound 0.1 µM
[14] = second compound 0.1 µM, first compound 0.00316 µM
[15] = second compound 0.1 µM, first compound 0.01 µM
[16] = second compound 0.1 µM, first compound 0.0316 µM
[17] = second compound 0.1 µM, first compound 0.1 µM
[18] = second compound 0.316 µM, first compound 0.00316 µM
[19] = second compound 0.316 µM, first compound 0.01 µM
[20] = second compound 0.316 µM, first compound 0.0316 µM
[21] = second compound 0.316 µM, first compound 0.1 µM
[22] = second compound 1 µM, first compound 0.00316 µM
[23] = second compound 1 µM, first compound 0.01 µM
[24] = second compound 1 µM, first compound 0.0316 µM
[25] = second compound 1 µM, first compound 0.1 µM

With `CCCS(=O)(=O)Nc1ccc(F)c(C(=O)c2c[nH]c3ncc(-c4ccc(Cl)cc4)cc23)c1F` the viability, T/C (compound 0.0316 µM) was 112% and 110%, the viability, T/C (compound 0.1 µM) was 108% and 114% and the viability, T/C (compound 0.316 µM) was 110% and 116%. For the same compound, the viability, T/C (compound 1 µM) was 115% and 118%, the viability, T/C (compound 3.16 µM) was 109% and 113% and the viability, T/C (compound 10 µM) was 79.7% and 82.9%. It also gave an IC50 (curve of compound) of over 10000 nM.

`COc1c(OCCCN2CCOCC2)ccc2c3n(c(=NC(=O)c4cnc(N)nc4)nc12)CCN3` + CCN1CCN(Cc2ccc(Nc3ncc(F)c(-c4cc(F)c5nc(C)n(C(C)C)c5c4)n3)nc2)CC1 was tested, and the IC50 [1] was 7.99 nM, the IC50 [2] was 6.14 nM and the IC50 [3] was 4.88 nM. It also gave an IC50 [4] of 4.36 nM, an IC50 [5] of 4.94 nM and a viability, T/C [6] of 79.2%. It also gave a viability, T/C [7] of 41.3%, a viability, T/C [8] of 28% and a viability, T/C [9] of 15.2%. The viability, T/C (second compound 0.01 µM, first compound 0.316 µM) was 9.78%, the viability, T/C (second compound 0.01 µM, first compound 1 µM) was 11.9% and the viability, T/C [10] was 62.9%. For the same compound, the viability, T/C [11] was 39.9%, the viability, T/C [12] was 25.3% and the viability, T/C [13] was 13.5%. For the same compound, the viability, T/C (second compound 0.0316 µM, first compound 0.316 µM) was 9.95%, the viability, T/C (second compound 0.0316 µM, first compound 1 µM) was 11.3% and the viability, T/C [14] was 57.1%. It also gave a viability, T/C [15] of 38%, a viability, T/C [16] of 23.4% and a viability, T/C [17] of 14.2%. For the same compound, the viability, T/C (second compound 0.1 µM, first compound 0.316 µM) was 10.9%, the viability, T/C (second compound 0.1 µM, first compound 1 µM) was 11.5% and the viability, T/C [18] was 53.6%. The viability, T/C [19] was 40.4%, the viability, T/C [20] was 29.7% and the viability, T/C [21] was 17.7%. It also gave a viability, T/C (second compound 0.316 µM, first compound 0.316 µM) of 13.5%, a viability, T/C (second compound 0.316 µM, first compound 1 µM) of 14% and a viability, T/C [22] of 54.4%. The viability, T/C [23] was 42.8%, the viability, T/C [24] was 32.9% and the viability, T/C [25] was 25.7%. It also gave a viability, T/C (second compound 1 µM, first compound 0.316 µM) of 19.7% and a viability, T/C (second compound 1 µM, first compound 1 µM) of 20.8%.

`CC(C)n1nc(-c2ccc3oc(N)nc3c2)c2c(N)ncnc21` + CCN1CCN(Cc2ccc(Nc3ncc(F)c(-c4cc(F)c5nc(C)n(C(C)C)c5c4)n3)nc2)CC1 gave an IC50 [1] of 1.9 nM, an IC50 [2] of 1.49 nM and an IC50 [3] of 1.46 nM. The IC50 [4] was 1.84 nM, the IC50 [5] was 1.86 nM and the viability, T/C (second compound 0.01 µM, first compound 0.000316 µM) was 97.3%. For the same compound, the viability, T/C (second compound 0.01 µM, first compound 0.001 µM) was 64.2%, the viability, T/C [6] was 39.3% and the viability, T/C [7] was 21.2%. For the same compound, the viability, T/C [8] was 11.3%, the viability, T/C [9] was 9.72% and the viability, T/C (second compound 0.0316 µM, first compound 0.000316 µM) was 82.2%. It also gave a viability, T/C (second compound 0.0316 µM, first compound 0.001 µM) of 56%, a viability, T/C [10] of 38.5% and a viability, T/C [11] of 19.9%. The viability, T/C [12] was 11.7%, the viability, T/C [13] was 8.9% and the viability, T/C (second compound 0.1 µM, first compound 0.000316 µM) was 76.9%. The viability, T/C (second compound 0.1 µM, first compound 0.001 µM) was 56.2%, the viability, T/C [14] was 36.9% and the viability, T/C [15] was 23.9%. The viability, T/C [16] was 12.9%, the viability, T/C [17] was 9.08% and the viability, T/C (second compound 0.316 µM, first compound 0.000316 µM) was 69.2%. It also gave a viability, T/C (second compound 0.316 µM, first compound 0.001 µM) of 58.8%, a viability, T/C [18] of 40.9% and a viability, T/C [19] of 31.5%. For the same compound, the viability, T/C [20] was 16%, the viability, T/C [21] was 12.5% and the viability, T/C (second compound 1 µM, first compound 0.000316 µM) was 60.3%. The viability, T/C (second compound 1 µM, first compound 0.001 µM) was 56.5%, the viability, T/C [22] was 44.4% and the viability, T/C [23] was 33.8%. It also gave a viability, T/C [24] of 25.1% and a viability, T/C [25] of 20.3%.

With `Cn1nccc1Nc1nccc(-c2ccn(C(CO)c3ccc(Cl)c(F)c3)c(=O)c2)n1` (configuration not stated) the viability, T/C (compound 0.0316 µM) was 87.3% and 90%, the viability, T/C (compound 0.1 µM) was 72.5% and 77.1% and the viability, T/C (compound 0.316 µM) was 79% and 73.5%. The viability, T/C (compound 1 µM) was 93.7% and 87.4%, the viability, T/C (compound 3.16 µM) was 112% and 116% and the viability, T/C (compound 10 µM) was 65% and 81.9%. For the same compound, the IC50 (curve of compound) was over 10000 nM.

For `CCN1CCN(Cc2ccc(Nc3ncc(F)c(-c4cc(F)c5nc(C)n(C(C)C)c5c4)n3)nc2)CC1`, the viability, T/C (compound 0.01 µM) was 97% [middle of 13 runs], the viability, T/C (compound 0.0316 µM) was 94% [middle of 13 runs] and the viability, T/C (compound 0.1 µM) was 84.7% [middle of 13 runs]. For the same compound, the viability, T/C (compound 0.316 µM) was 74.7% [middle of 13 runs], the viability, T/C (compound 1 µM) was 65.3% [middle of 13 runs] and the IC50 (compound alone, run of 06/01/2021) was over 1000 nM.

In the case of `CC(C)n1nc(-c2ccc3oc(N)nc3c2)c2c(N)ncnc21`, the viability, T/C (compound 0.000316 µM) is reported as 78.7% and 94.3%, the viability, T/C (compound 0.001 µM) is reported as 57.3% and 66.2% and the viability, T/C (compound 0.00316 µM) is reported as 41.3% and 40.2%. The viability, T/C (compound 0.01 µM) was 22.9% and 21.7%, the viability, T/C (compound 0.0316 µM) was 14.4% and 12% and the viability, T/C (compound 0.1 µM) was 10.8% and 10.1%. For the same compound, the IC50 (curve of compound) was 1.66 nM and 2.03 nM.
